Assay results as given in the supplement of paper PMC12137928.
Counter-ions that a name gives are not always drawn.

How the values were obtained:
[1] = system: HCT116; settings: 72 h
In short: (§1)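 IC50 and maximal efficacy were derived from four-parameter Hill curve fits. The underlying CellTiter-Glo luminescence was scaled so that vehicle equals 0% and positive control equals -100%, and was then pattern-corrected. HCT116 cells had been seeded in 1536-well plates at 250 per well.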

[2] = system: HCT116; assay: efficacy (maximum % inhibition of viability vs DMSO); higher = more cytotoxic; settings: 72 h
In short: as §1

`C=C(NC(=O)C(=C)NC(=O)c1csc(C2=N[C@@H]3c4csc(n4)[C@H]4NC(=O)c5csc(n5)[C@H]([C@](C)(O)[C@@H](C)O)NC(=O)[C@H]5CSC(=N5)/C(=C/C)NC(=O)[C@H]([C@@H](C)O)NC(=O)c5csc(n5)[C@]3(CC2)NC(=O)[C@H](C)NC(=O)C(=C)NC(=O)[C@H](C)NC(=O)[C@H]([C@@H](C)CC)N[C@@H]2C=Cc3c([C@H](C)O)cc(nc3[C@H]2O)C(=O)O[C@@H]4C)n1)C(N)=O` [Thiostrepton] gave an IC50 cell viability ([1]; ICRF193 0 nM) greater than 45.8 µM, an IC50 cell viability ([1]; ICRF193 200 nM) of 5.17 µM and an efficacy ([2]; ICRF193 200 nM) of 58.6%.
For `CN(C)C(=S)SSC(=S)N(C)C` [Thiram], the IC50 cell viability ([1]; ICRF193 0 nM) was greater than 45.8 µM, the IC50 cell viability ([1]; ICRF193 200 nM) was 29.1 µM and the efficacy ([2]; ICRF193 200 nM) was 82.8%.
In the case of `CCCCCCCCCCCCCCCC[N+](C)(C)CCN(Cc1ccc(OC)cc1)c1ncccn1` [Thonzonium bromide], the IC50 cell viability ([1]; ICRF193 0 nM) is reported as 18.3 µM, the IC50 cell viability ([1]; ICRF193 200 nM) is reported as 4.61 µM and the efficacy ([2]; ICRF193 0 nM) is reported as 120%. The efficacy ([2]; ICRF193 200 nM) was 89.7%.
Compound `CCCSc1nc(N[C@@H]2C[C@H]2c2ccc(F)c(F)c2)c2nnn([C@@H]3C[C@H](OCCO)[C@@H](O)[C@H]3O)c2n1` [Ticagrelor] has an IC50 cell viability ([1]; ICRF193 0 nM) of 29.1 µM, an IC50 cell viability ([1]; ICRF193 200 nM) of 18.3 µM and an efficacy ([2]; ICRF193 0 nM) of 77.1%. It also gave an efficacy ([2]; ICRF193 200 nM) of 92.6%.
With `O=C(CCCN1CCC(n2c(=S)[nH]c3ccccc32)CC1)c1ccc(F)cc1` [Timiperone] the IC50 cell viability ([1]; ICRF193 0 nM) was greater than 45.8 µM, the IC50 cell viability ([1]; ICRF193 200 nM) was 18.3 µM and the efficacy ([2]; ICRF193 200 nM) was 46.1%.
`Clc1ccc(C(Cn2ccnc2)OCc2ccsc2Cl)c(Cl)c1` (stereo unspecified) [Tioconazole] showed an IC50 cell viability ([1]; ICRF193 0 nM) of 20.6 µM, an IC50 cell viability ([1]; ICRF193 200 nM) of 18.3 µM and an efficacy ([2]; ICRF193 0 nM) of 102%. It also gave an efficacy ([2]; ICRF193 200 nM) of 91.7%.
For `Cn1cncc1[C@@](N)(c1ccc(Cl)cc1)c1ccc2c(c1)c(-c1cccc(Cl)c1)cc(=O)n2C` [Tipifarnib], the IC50 cell viability ([1]; ICRF193 0 nM) was 20.6 µM, the IC50 cell viability ([1]; ICRF193 200 nM) was 23.1 µM and the efficacy ([2]; ICRF193 0 nM) was 118%. The efficacy ([2]; ICRF193 200 nM) was 126%.
With `CC(C)C(=O)OCc1cccc(OC(=O)[C@@H]2N3C(=O)[C@@H](NC(=O)Cc4ccccc4)[C@H]3SC2(C)C)c1` [Tobicillin] the IC50 cell viability ([1]; ICRF193 0 nM) was 29.1 µM, the IC50 cell viability ([1]; ICRF193 200 nM) was 29.1 µM and the efficacy ([2]; ICRF193 0 nM) was 122%. The efficacy ([2]; ICRF193 200 nM) was 103%.
`Cc1[nH]c(/C=C2\C(=O)Nc3ccc(F)cc32)c(C)c1C(=O)NCCN1CCCC1` [Toceranib] gave an IC50 cell viability ([1]; ICRF193 0 nM) of 8.96 µM, an IC50 cell viability ([1]; ICRF193 200 nM) of 8.96 µM and an efficacy ([2]; ICRF193 0 nM) of 102%. For the same compound, the efficacy ([2]; ICRF193 200 nM) was 94.9%.
`Cc1ccc(C(=O)c2cc(O)c(O)c([N+](=O)[O-])c2)cc1` [Tolcapone] showed an IC50 cell viability ([1]; ICRF193 0 nM) greater than 45.8 µM, an IC50 cell viability ([1]; ICRF193 200 nM) of 29.1 µM and an efficacy ([2]; ICRF193 200 nM) of 84.9%.
With `Cc1cc(-n2c(=O)[nH]c(=O)n(C)c2=O)ccc1Oc1ccc(S(=O)(=O)C(F)(F)F)cc1` [Toltrazuril (sulfone)] the IC50 cell viability ([1]; ICRF193 0 nM) was 7.3 µM, the IC50 cell viability ([1]; ICRF193 200 nM) was greater than 45.8 µM and the efficacy ([2]; ICRF193 0 nM) was 44.9%.
With `CC[C@@]1(O)C(=O)OCc2c1cc1n(c2=O)Cc2cc3c(CN(C)C)c(O)ccc3nc2-1` [Topotecan hydrochloride] the IC50 cell viability ([1]; ICRF193 0 nM) was 0.73 µM, the IC50 cell viability ([1]; ICRF193 200 nM) was 0.206 µM and the efficacy ([2]; ICRF193 0 nM) was 94.2%. It also gave an efficacy ([2]; ICRF193 200 nM) of 102%.
Work on `CN(C)CCOc1ccc(/C(=C(/CCCl)c2ccccc2)c2ccccc2)cc1` [Toremifene citrate] yielded an IC50 cell viability ([1]; ICRF193 0 nM) of 20.6 µM, an IC50 cell viability ([1]; ICRF193 200 nM) of 29.1 µM and an efficacy ([2]; ICRF193 0 nM) of 128%. It also gave an efficacy ([2]; ICRF193 200 nM) of 104%.
Work on `COc1cc2c(cc1O)CCN[C@]21CS[C@@H]2c3c(OC(C)=O)c(C)c4c(c3[C@H](COC1=O)N1[C@@H]2[C@H]2c3c(cc(C)c(OC)c3O)C[C@@H]([C@@H]1O)N2C)OCO4` [Trabectedin] yielded an IC50 cell viability ([1]; ICRF193 0 nM) of 0.0119 µM, an IC50 cell viability ([1]; ICRF193 200 nM) of 0.00473 µM and an efficacy ([2]; ICRF193 0 nM) of 57.2%. The efficacy ([2]; ICRF193 200 nM) was 74.4%.
Work on `CC(=O)Nc1cccc(-n2c(=O)n(C3CC3)c(=O)c3c(Nc4ccc(I)cc4F)n(C)c(=O)c(C)c32)c1` [Trametinib] yielded an IC50 cell viability ([1]; ICRF193 0 nM) of 0.259 µM, an IC50 cell viability ([1]; ICRF193 200 nM) of 0.0206 µM and an efficacy ([2]; ICRF193 0 nM) of 92.3%. The efficacy ([2]; ICRF193 200 nM) was 82.8%.
`CC(C)OC(=O)CCC/C=C\C[C@@H]1[C@@H](/C=C/[C@@H](O)COc2cccc(C(F)(F)F)c2)[C@H](O)C[C@@H]1O` [Travoprost] gave an IC50 cell viability ([1]; ICRF193 0 nM) of 14.6 µM, an IC50 cell viability ([1]; ICRF193 200 nM) of 20.6 µM and an efficacy ([2]; ICRF193 0 nM) of 87.4%. For the same compound, the efficacy ([2]; ICRF193 200 nM) was 96.5%.
`Nc1nc(N)c2nc(-c3ccccc3)c(N)nc2n1` [Triamterene] was tested, and the IC50 cell viability ([1]; ICRF193 0 nM) was 29.1 µM, the IC50 cell viability ([1]; ICRF193 200 nM) was 29.1 µM and the efficacy ([2]; ICRF193 0 nM) was 95.4%. It also gave an efficacy ([2]; ICRF193 200 nM) of 92.7%.
Compound `CCOC1O[C@H]([C@@H](COCc2ccccc2)OCc2ccccc2)[C@H](OCc2ccccc2)[C@H]1O` (stereo partly specified) [Tribenoside] has an IC50 cell viability ([1]; ICRF193 0 nM) of 29.1 µM, an IC50 cell viability ([1]; ICRF193 200 nM) of 18.3 µM and an efficacy ([2]; ICRF193 0 nM) of 106%. It also gave an efficacy ([2]; ICRF193 200 nM) of 92.1%.
`O=C(Nc1ccc(Cl)cc1)Nc1ccc(Cl)c(Cl)c1` [Triclocarban] was tested, and the IC50 cell viability ([1]; ICRF193 0 nM) was 18.3 µM, the IC50 cell viability ([1]; ICRF193 200 nM) was 13 µM and the efficacy ([2]; ICRF193 0 nM) was 102%. For the same compound, the efficacy ([2]; ICRF193 200 nM) was 104%.
